≈ marks a conversion by molar mass, not a printed value.
Experiments:
[1] = tested on: MRSA; experiment: MIC analysis; type: cell-based; details: Staphylococcus aureus, 24 hours
Method: (§1) A clinical strain of MRSA, isolated from a patient who underwent arthroscopic knee surgery and characterized by ARUP Laboratories, Salt Lake City, Utah, was used for this study in addition to Pseudomonas aeruginosa ATCC 27853 and Alcanivorax borkumensis ATCC 700651. P. aeruginosa was resuspended in BHI broth, grown overnight at 37° C. and transferred to fresh BHI with 30% glycerol for storage at −80° C. The MRSA isolate was likewise stored in BHI with 30% glycerol at −80° C. […] Before performing MIC analysis and biofilm experiments, the frozen stocks of MRSA and P. aeruginosa were streaked onto Columbia blood agar plates and grown overnight at 37° C. A. borkumensis ATCC 700651 was resuspended from a lyophilized pellet into marine broth, grown overnight at 30° C. and passaged on marine agar plates prior to experimentation.
(§2) To determine the MIC of polyamine compounds, the protocol described herein was used.
(§3) In brief, a 0.5 McFarland of each bacterial isolate was made. A 0.5 McFarland is a measure of turbidity in a liquid sample that contains approximately 1×10^^8 CFU/mL. The 0.5 McFarland standard was diluted in cation adjusted Mueller Hinton Broth (CAMHB), and 50 μL of broth were added to a well of a 96-well plate. In addition, 50 μL of CAMHB that contained a desired concentration of antimicrobial were also added to the well for a final volume of 100 μL and a final concentration of approximately 5×10^4 CFU/well (which equated to approximately 5×10^5 CFU/mL). Each well contained a desired amount of polyamine compound in order to experimentally determine the MIC. Each 96-well plate was incubated at 37° C. for 24 hours. The contents of each well were plated on tryptic soy agar (TSA). TSA plates were incubated for 37° C. for 24 hours after which the number of CFU were counted and used to calculate the CFU/mL that remained after exposure to varying concentrations of compound. This procedure was repeated n=8 times for each concentration of antimicrobial.

[2] = tested on: P. aeruginosa; experiment: MIC analysis; type: cell-based; details: Pseudomonas aeruginosa, 24 hours
Method: as §1, §2, §3

[3] = tested on: MRSA; experiment: MBEC analysis, MBEC Inoculation Tray (column headed MBC); type: cell-based; details: Staphylococcus aureus, 24 hours
Description: (§4) To determine the MBEC of each polyamine compound, the MBEC Inoculation Tray by Innovotech, formerly known as the Calgary biofilm device, was used. Within this device, biofilms grow on the surface of polystyrene pegs, 96 of which are attached to a lid. These pegs are inserted into a flat bottom 96-well plate. In this instance, the MBEC of a molecule was defined as the concentration of compound (in μg/mL) required to reduce 10^5 or 10^6 CFU/peg (biofilm levels varied by isolate) to 10^2 CFU/peg in a 24-hour period.
(§5) Following the manufacturer's guidelines, biofilms were grown on the surface of each peg by first making a 0.5 McFarland of each isolate. The 0.5 McFarland was diluted 1:100 in CAMHB. Into each well of a flat bottom 96-well plate, 150 μL of broth were pipetted. The plate was shaken at 100 rpm for 24 hours (P. aeruginosa and A. baumannii) or 48 hours (MRSA). The pegs were then placed into a separate flat bottom 96-well plate for 10 seconds with 200 μL of phosphate buffered saline (PBS) in each well to remove nonadherent cells. The lid was then placed into a 96-well plate that contained varying concentrations of antimicrobial with 200 μL per well. The plate was incubated for 24 hours at 37° C. after which time 100 μL of broth were plated on TSA. TSA plates were incubated 24 hours at 37° C. and the number of CFU counted to calculate the CFU/peg. In this instance, the MBEC was defined as the concentration of antimicrobial required to reduce 10^5 or 10^6 CFU/peg to 10^2 CFU/peg in a 24 hour period.

[4] = tested on: P. aeruginosa; experiment: as above; type: cell-based; details: Pseudomonas aeruginosa, 24 hours
Description: as §4, §5

[5] = tested on: E. coli; experiment: MIC analysis; type: cell-based; details: Escherichia coli, 24 hours
Method: as §2, §3

[6] = tested on: E. coli; experiment: MBEC analysis, MBEC Inoculation Tray (column headed MBC); type: cell-based; details: Escherichia coli, 24 hours
[7] = tested on: MRSA; experiment: EBEC analysis, high number biofilms on PEEK membranes; type: cell-based, Staphylococcus aureus; details: 24 hours
Method: (§6) To determine the efficacy of polyamine compounds against high number biofilms, biofilms were grown on the surface of polyetheretherketone (PEEK) membranes using a membrane biofilm reactor. This reactor was similar to the CDC biofilm reactor, but rather than growing biofilms on coupon surfaces, the reactor was modified to hold PEEK membranes. In short, to grow biofilms within this system, 500 mL of brain heart infusion (BHI) broth were inoculated with 1 mL of a 0.5 McFarland. The reactor was placed on a hot plate set at 34° C. and the bacteria were grown under batch conditions for 24 hours.
(§7) A solution of 10% BHI was then flowed through the reactor at a rate of 6.94 mL/min for an additional 24 hours. PEEK membranes were then removed and placed into 2 mL of CAMHB that contained a desired concentration of polyamine compound or antibiotic. The EBEC was defined as the concentration of antimicrobial required to reduce a biofilm from approximately 10^9 CFU/PEEK membrane to approximately 10^2 CFU/PEEK membrane in a 24-hour period.

[8] = tested on: A. baumannii; experiment: MIC analysis; type: cell-based; details: Acinetobacter baumannii, 24 hours
Method: as §2, §3

[9] = tested on: A. baumannii; experiment: MBEC analysis, MBEC Inoculation Tray (column headed MBC); type: cell-based; details: Acinetobacter baumannii, 24 hours
Description: as §4, §5

[10] = tested on: A. baumannii; experiment: EBEC analysis, high number biofilms on PEEK membranes; type: cell-based, Acinetobacter baumannii; details: 24 hours
Method: as §6, §7

MIC [1] [µg/mL]	MIC [2] [µg/mL]	MIC [8] [µg/mL]	Structure (SMILES)	MBC [3] [µg/mL]	MBC [4] [µg/mL]	MIC [5] [µg/mL]	MBC [6] [µg/mL]	EBEC [7] [µg/mL]	MBC [9] [µg/mL]	EBEC [10] [µg/mL]
16 (≈ 25.4 µM)	32 (≈ 50.9 µM)	–	CC(C)CNCCCNCCCNCc1cccc(-c2ccccc2-c2cccc(CNCCCNCCCNCC(C)C)c2)c1 [CZ-1-152]	16 (≈ 25.4 µM)	32 (≈ 50.9 µM)	–	–	–	–	–
16 (≈ 19.3 µM)	> 64	–	CC(C)CNCCCNCCCNCc1cccc(-c2ccc(-c3cccc(CNCCCNCCCNCC(C)C)c3)c(CNCCCNCCCNCC(C)C)c2)c1 [CZ-1-153, N^1,N^1′,N^1″-([1,1′:4′,1″-terphenyl]-2′,3,3″-triyltris(methylene))tris(N^3-(3-(isobutylamino)propyl)propane-1,3-diamine)]	16 (≈ 19.3 µM)	> 64	–	–	–	–	–
16 (≈ 23.4 µM)	16 (≈ 23.4 µM)	–	CCCCCCNCCCNCCCNCc1cccc(-c2ccccc2-c2cccc(CNCCCNCCCNCCCCCC)c2)c1 [CZ-1-155, N^1,N^1′-([1,1′:2′,1″-terphenyl]-3,3″-diylbis(methylene))bis(N^3-(3-(hexylamino)propyl)propane-1,3-diamine)]	16 (≈ 23.4 µM)	16 (≈ 23.4 µM)	–	–	–	–	–
4 (≈ 6.36 µM)	16 (≈ 25.4 µM)	–	CC(C)CNCCCNCCCNCc1ccc(-c2cccc(-c3ccc(CNCCCNCCCNCC(C)C)cc3)c2)cc1 [CZ-1-157, N^1,N^1′-([1,1′:3′,1″-terphenyl]-4,4″-diylbis(methylene))bis(N^3-(3-(isobutylamino)propyl)propane-1,3-diamine)]	4 (≈ 6.36 µM)	16 (≈ 25.4 µM)	–	–	>750	–	–
1 (≈ 1.46 µM)	16 (≈ 23.4 µM)	–	CCC(CC)CNCCCNCCCNCc1ccc(-c2cccc(-c3ccc(CNCCCNCCCNCC(CC)CC)cc3)c2)cc1 [CZ-1-164, N^1,N^1′-([1,1′:3′,1″-terphenyl]-4,4″-diylbis(methylene))bis(N^3-(3-((2-ethylbutyl)amino)propyl)propane-1,3-diamine)]	1 (≈ 1.46 µM)	16 (≈ 23.4 µM)	–	–	–	–	–
1 (≈ 1.52 µM)	4 (≈ 6.09 µM)	–	CCC(C)CNCCCNCCCNCc1ccc(-c2cccc(-c3ccc(CNCCCNCCCNCC(C)CC)cc3)c2)cc1 (stereo not drawn) [CZ-1-166, N^1,N^1′-([1,1′:3′,1″-terphenyl]-4,4″-diylbis(methylene))bis(N^3-(3-((2-methylbutyl)amino)propyl)propane-1,3-diamine)]	1 (≈ 1.52 µM)	8 (≈ 12.2 µM)	–	–	–	–	–
8 (≈ 12.1 µM)	64 (≈ 97.1 µM)	–	CC(C)CCNCCCNCCCNCc1ccc(-c2ccnc(-c3ccc(CNCCCNCCCNCCC(C)C)cc3)n2)cc1 [CZ-1-174, N^1,N^1′-((pyrimidine-2,4-diylbis(4,1-phenylene))bis(methylene))bis(N^3-(3-(isopentylamino)propyl)propane-1,3-diamine)]	16 (≈ 24.3 µM)	> 64	–	–	–	–	–
32 (≈ 50.7 µM)	64 (≈ 101 µM)	–	CC(C)CNCCCNCCCNCc1ccc(-c2cc(-c3ccc(CNCCCNCCCNCC(C)C)cc3)ncn2)cc1 [CZ-1-176, N^1,N^1′-((pyrimidine-4,6-diylbis(4,1-phenylene))bis(methylene))bis(N^3-(3-(isobutylamino)propyl)propane-1,3-diamine)]	32 (≈ 50.7 µM)	64 (≈ 101 µM)	–	–	–	–	–
1 (≈ 1.46 µM)	1 (≈ 1.46 µM)	8 (≈ 11.7 µM)	CC(C)CNCCCNCCCNCc1ccc(-c2cc(-c3ccc(CNCCCNCCCNCC(C)C)cc3)cc(C(C)(C)C)c2)cc1 [CZ-1-177, N^1,N^1′-((5′-(tert-butyl)-[1,1′:3′,1″-terphenyl]-4,4″-diyl)bis(methylene))bis(N^3-(3-(isobutylamino)propyl)propane-1,3-diamine)]	1 (≈ 1.46 µM)	> 4	–	–	250	16 (≈ 23.4 µM)	500
1 (≈ 1.4 µM)	1 (≈ 1.4 µM)	2 (≈ 2.8 µM)	CCC(C)CNCCCNCCCNCc1ccc(-c2cc(-c3ccc(CNCCCNCCCNCC(C)CC)cc3)cc(C(C)(C)C)c2)cc1 (stereo not drawn) [CZ-1-178, N^1,N^1′-((5′-(tert-butyl)-[1,1′:3′,1″-terphenyl]-4,4″-diyl)bis(methylene))bis(N^3-(3-((2-methylbutyl)amino)propyl)propane-1,3-diamine)]	1 (≈ 1.4 µM)	> 4	–	–	<250	4 (≈ 5.61 µM)	500
0.5 (≈ 0.675 µM)	8 (≈ 10.8 µM)	16 (≈ 21.6 µM)	CCC(CC)CNCCCNCCCNCc1cccc(-c2cc(-c3cccc(CNCCCNCCCNCC(CC)CC)c3)cc(C(C)(C)C)c2)c1 [CZ-1-183, N^1,N^1′-((5′-(tert-butyl)-[1,1′:3′,1″-terphenyl]-3,3″-diyl)bis(methylene))bis(N^3-(3-((2-ethylbutyl)amino)propyl)propane-1,3-diamine)]	–	–	–	–	–	–	–
0.5 (≈ 0.73 µM)	16 (≈ 23.4 µM)	64 (≈ 93.4 µM)	CC(C)CNCCCNCCCNCc1cccc(-c2cc(-c3cccc(CNCCCNCCCNCC(C)C)c3)cc(C(C)(C)C)c2)c1 [CZ-1-184, N^1,N^1′-((5′-(tert-butyl)-[1,1′:3′,1″-terphenyl]-3,3″-diyl)bis(methylene))bis(N^3-(3-(isobutylamino)propyl)propane-1,3-diamine)]	–	–	–	–	–	–	–

Structure (SMILES)	MIC [1] [µg/mL]	MIC [2] [µg/mL]	MIC [8] [µg/mL]	MBC [3] [µg/mL]	MBC [4] [µg/mL]	MIC [5] [µg/mL]	MBC [6] [µg/mL]	EBEC [7] [µg/mL]	MBC [9] [µg/mL]	EBEC [10] [µg/mL]
CC(C)CNCCCNCCCNCc1ccc(-c2ccccc2-c2ccc(CNCCCNCCCNCC(C)C)cc2)cc1 [CZ-1-154, N^1,N^1′-([1,1′:2′,1″-terphenyl]-4,4″-diylbis(methylene))bis(N^3-(3-(isobutylamino)propyl)propane-1,3-diamine)]	4 (≈ 6.36 µM)	32 (≈ 50.9 µM)	–	4 (≈ 6.36 µM)	> 32	16 (≈ 25.4 µM)	16 (≈ 25.4 µM)	–	–	–
CCCCC(CC)CNCCCNCCCNCc1ccc(-c2cccc(-c3ccc(CNCCCNCCCNCC(CC)CCCC)cc3)c2)cc1 (stereo not drawn) [CZ-1-161, N^1,N^1′-([1,1′:3′,1″-terphenyl]-4,4″-diylbis(methylene))bis(N^3-(3-((2-ethylhexyl)amino)propyl)propane-1,3-diamine)]	1 (≈ 1.35 µM)	16 (≈ 21.6 µM)	4 (≈ 5.4 µM)	2 (≈ 2.7 µM)	16 (≈ 21.6 µM)	1 (≈ 1.35 µM)	1 (≈ 1.35 µM)	–	4 (≈ 5.4 µM)	–
